Assay results taken from US6855536B2, “Materials and methods for the enhancement of effective root nodulation in legumes” (priority 2000, dated 2005).
“Also recorded” adds a separate entry of the source.

Tests used:
[1] = tested on: nolA-lacZ fusion; test: nolA-lacZ (nolA1,2,3-lacZ) fusion β-galactosidase assay in B. japonicum; type: cell-based, Bradyrhizobium japonicum; details: for Induction of nolA expression (in words): B. japonicum harboring nolA-lacZ fusion
Procedure: (§1) Bacterial Stains, plasmids and culture conditions. For routine bacterial growth, B. japonicum cells were maintained on RDY medium (So, J. -S. et al. [1987] Mol. Gen. Genet. 207:15-23). Bacteria were grown in minimal medium (Bergensen, F. J. [1961] Aust. J. Biol. Sci. 14:349-360) for β-galactosidase activity. As required, antibiotics were used at the following concentrations, Cm (30 μg/ml), Sm (100 μg/ml), Sp (100 μg/ml), Tc (100 μg/ml). The B. japonicum strains used in this study were Bj110-42, BJAlac12, BJAlac23, BJAlac13 and BJ110-1248-1, ZB977, SL101 and Bj110-573. These strains harbored the following translational fusions; BJ110-1248-1 (nodD2-lacZ, plasmid pRJ1248, Dockendorff et al. [1994] Mol. Plant-Microbe Interact. 7:596-602), ZB977 (nodY-lacZ, plasmid pZB32, Banfalvi et al. [1988] Mol. Gen. Genet. 214:420-424), SL101 (npt-lacZ, Yuen, J. P.-Y and G. Stacey [1996] Mol. Plant-Microbe Interact. 9:424-428), and Bj110-573 (nodC-lacZ, chromosomally integrated fusion, Dockendorff et al. [1994] Mol. Plant-Microbe Interact 7:596-602). Strains Bj110-42, BJAlac23, BJAlac12, BJAlac13 harbored nolA-lacZ translational fusions encoded on plasmids pBGALac1, pNMAlac23, pNMAlac13, pNMAlac12 respectively (Garcia et al. [1996] Mol. Plant-Microbe Interact. 9:625-635; Loh et al. [1999] J. Bacteriol. 181:1544-1554). Plasmid pNMAlac23 contained mutations to ATG2 and ATG3 of nolA and allowed the specific expression of NolA1-lacZ. In contrast, plasmids pNMAlac13 (mutations to ATG1 and ATG3) and pNMAlac12 (mutation to ATG1 and ATG3, Loh et al. [1999] J. Bacteriol. 181:1544-1554) only expressed NolA2-lacZ and NolA3-lacZ, respectively.
Typically, B. japonicum cells are found in high population density in commercial inoculants. To determine if the bacterial nolA inducer was present in commercial inoculant, three soybean inoculants from two commercially available sources were extracted with butanol, and these extracts analyzed for their ability to induce the nolA-lacZ fusions.
As shown in Tables 2-3 and FIG. 11C, an inducer of nolA-lacZ and nodD2-lacZ expression was detected in conditioned medium from B. japonicum cultures grown to a high population density. […] The nolA inducer present in the conditioned medium was lost after dialysis using a membrane with a cutoff at 3 kDa (Fisher Scientific, Pittsburgh, Pa.).

[2] = tested on: CDF production; test: CDF production in B. japonicum cultures grown with iron; type: cell-based, Bradyrhizobium japonicum; details: Fe^3+ added to B. japonicum cultures
[3] = tested on: nodY-lacZ; test: nodY-lacZ fusion induction by genistein in B. japonicum; type: cell-based, Bradyrhizobium japonicum; details: for Effect on nodY-lacZ expression: 0.025 μM genistein for five hours, with or without 500 μM FeCl3
Procedure: as §1
This view is supported experimentally by the following two results.
The levels of nod gene expression were also found to be affected by IND-1.

[4] = tested on: nodule occupancy by the NwsB mutant; test: Nodule occupancy competition assay, NwsB mutant versus wild-type; type: in vivo, Glycine max; details: 25 μM BEHP; NwsB mutant and USDA110 at different ratios; 21 days post inoculation
Procedure: Different ratios of B. japonicum USDA110 and B. japonicum NwsB mutant were innoculated on soybean plants grown in growth pouches. At the time of innoculation, the root tip (RT) mark was noted on the outside of the pouches. Nodules were extracted 21 days post innoculation and the extracts were plated on RDY plates. Single colonies were picked and tested for streptomycin resistance (a marker for the NwsB mutant). (A) is above RT at time of innoculation; (B) below RT at time of innoculation.
We have generated, by recombinant means, mutations in the nwsB gene. The NwsB mutant appears to be defective in the recognition of the quorum signal and we have performed plant tests with the mutant in competition assays with the wild-type bacteria. In these assays, the effect of IND-1 (BEHP) on the ability of the NwsB mutant to nodulate soybean in the presence of wild-type bacteria (at different cell ratios) was examined. […] Nodule occupancy was scored both above (treated area) and below (new root growth) the root tip mark at the time of inoculation. […] These studies were conducted using 25 μM levels of BEHP.

[5] = tested on: NolA1-lacZ; test: NolA1-lacZ fusion β-galactosidase assay in B. japonicum; type: cell-based, Bradyrhizobium japonicum; details: NolA3-lacZ fusions compared
Procedure: as §1, with “Strains Bj110-42, BJAlac23, BJAlac12, BJAlac13 harbored nolA-lacZ translational fusions encoded on plasmids pBGALac1, pNMAlac23, pNMAlac13, pNMAlac12 respectively (Garcia et al. [1996] Mol. Plant-Microbe Interact. 9:625-635; Loh et al. [1999] J. Bacteriol. 181:1544-1554). Plasmid pNMAlac23 contained mutations to ATG2 and ATG3 of nolA and allowed the specific expression of NolA1-lacZ. In contrast, plasmids pNMAlac13 (mutations to ATG1 and ATG3) and pNMAlac12 (mutation to ATG1 and ATG3, Loh et al. [1999] J. Bacteriol. 181:1544-1554) only expressed NolA2-lacZ and NolA3-lacZ, respectively.” left out
As shown in Tables 2-3 and FIG. 11C, an inducer of nolA-lacZ and nodD2-lacZ expression was detected in conditioned medium from B. japonicum cultures grown to a high population density. […]

[6] = tested on: nodulation of soybean by B. japonicum; test: Soybean nodulation plant test in growth pouches; type: in vivo, Glycine max; details: for Effect on nodulation of soybean (in words): B. japonicum cells pretreated 1 h, 10^7 cells per root, nodules counted 21 days post-inoculation
Procedure: The significance of nod gene repression by both IND-1 and the quorum factor was also investigated in plant tests. Seeds of Glycine maxcv Essex were surface sterilized, placed in sterile growth pouches (Mega International, MN) and cultivated as described by Nieuwkoop et al. (Nieuwkoop et al. [1987] J. Bacteriol. 169:2631-2638). Each seedling was inoculated with 10^7 B. japonicum cells. Prior to inoculation of the roots, B. japonicum cells were incubated for 1 h with concentrated, conditioned medium that had been sterilized by filtration through a […] filter (Millipore, Bedford, Mass.). The conditioned medium was used at a final concentration of 10 μl per 1 ml of culture. At the time of inoculation, the location of the root tip was marked on the outside of the plastic growth pouch. Plants were watered with nitrogen free nutrient solution (Wacek and Brill [1976] Crop Sci. 15:519-523). At 21 days post-inoculation, the number of nodules on each root both above and below the root tip mark was recorded.

[7] = tested on: nodC-lacZ; test: nodC-lacZ fusion induction by genistein in B. japonicum Bj110-573; type: cell-based, Bradyrhizobium japonicum; details: 0.025 μM genistein, 5 hours; cells harvested at high population densities (A600=1.62 or 3.22)
Procedure: as §1, with “Plasmid pNMAlac23 contained mutations to ATG2 and ATG3 of nolA and allowed the specific expression of NolA1-lacZ. In contrast, plasmids pNMAlac13 (mutations to ATG1 and ATG3) and pNMAlac12 (mutation to ATG1 and ATG3, Loh et al. [1999] J. Bacteriol. 181:1544-1554) only expressed NolA2-lacZ and NolA3-lacZ, respectively.” left out

[8] = listed as phthalic acid bis-(2-ethyl-hexyl) ester

SMILES: [Cl][Fe]([Cl])[Cl] [Fe^3+, FeCl3]
- Effect on nolA expression at high culture densities ([1]; increasing concentrations of FeCl3 for five hours): significantly reduced the expression of nolA expression
- Effect on CDF production [2]: inhibit CDF production
- Effect on nodY-lacZ expression [3]: corresponding increase in nodY-lacZ expression
- Effect on nodY-lacZ expression ([3]; listed as FeCl3): increase in the expression of a nodY-lacZ fusion protein

SMILES: CCCCC(CC)COC(=O)c1ccccc1C(=O)OCC(CC)CCCC (stereo not shown) [IND-1, phthalic acid bis-(2-ethyl-hexyl) ester]
- Percentage of nodules occupied by the NwsB mutant [4]: increase the percentage of nodules that were occupied by the NwsB mutant
- Induction of nolA expression (in words) [1]: active on B. japonicum nolA-lacZ fusions; also recorded: capable of inducing nolA
- Induction of nolA expression (in words) [1, 8]: potent inducer of nolA; also recorded: strong inducer of NolA expression
- Which NolA form is affected (NolA1, NolA2, NolA3) [5]: affect only NolA1 expression
- Effect on nodulation of soybean (in words) [6]: reduced nodulation efficiency
- Effect on nodulation of soybean (in words) [6, 8]: inhibits nodulation
- Nodule phenotype in the presence of BEHP ([6]; UV treated USDA61 A2 73 cells inoculated onto soybean roots): delayed nodule phenotype
- Effect on nod gene (nodY-lacZ) induction by genistein (in words) ([3]; B. japonicum at low population density, IND-1 in USDA110, USDA76, USDA31): reduced nodY-lacZ induction by genistein

SMILES: O=c1c(-c2ccc(O)cc2)coc2cc(O)ccc12 [daidzein, reference compound]
- Induction of nolA expression (in words) [1]: failed to induced nolA expression

SMILES: O=c1c(-c2ccc(O)cc2)coc2cc(O)cc(O)c12 [genistein, reference compound]
- Induction of nolA expression (in words) [1]: failed to induced nolA expression
- nodC-lacZ induction by genistein [7]: Little or no nodC induction
- Induction of nodY-lacZ, β-galactosidase activity ([3]; 0.05 μM genistein for 5 h, with or without CM (A600 = 1.0), CPRG substrate, mean of two ± SD): 366 ± 11 U
